Test results as given in patent US20200384079A1, “Compositions of Fibroblast Growth Factor LIgands and Methods of Treating Patients Undergoing Ischemia-Reperfusion Therapy” (University of Cincinnati, priority 2017, published 2020).
“Also recorded” adds a separate entry of the source. Read-outs that look alike come from different tables or passages of the source.

What was measured:
[1] = target: FGFR3c ectodomain (extracellular ligand binding domain of FGFR3c) (UniProt P22607); assay: ITC; FGF1^ΔHBS injected into FGFR3c ectodomain in the cell
[2] = system: in vivo rat model of myocardial infarction; settings: rat; for post-ischemic cardiac function (in words): given at reperfusion, no heparin co-therapy
trypsin = assay: Susceptibility to proteolytic degradation by trypsin (fluorescence emission); format: in vitro ADME
Procedure: Ligand bioavailability (i.e., pharmacokinetic mechanism) can be a significant pharmacological limitation for therapeutic applicability. […] Susceptibility to protease action of FGF1^ΔTS was determined by monitoring changes in fluorescence emission during degradation by trypsin, FGF1^ΔTS (20-fold increase) and FGF2 (7-fold increase) were more resistant to proteolytic degradation than the native FGF1. It remained to be elucidated as to whether these pharmacokinetic mechanisms I.e., bioavailability and/or half-life) were enhanced in vivo as well. Therefore, detection of the bioavailability and half-life of native and thermally stable mutated ligands (FGF^ΔTS) are carried out as follows: […]

[3] = Blood clotting time (tail nick); format: in vivo, rat; settings: for Clotting time: 15 mins post treatment, single agent
Procedure: In sets of experiments, blood clotting time was detected at baseline and 15 minutes after drug treatment. In brief, a nick 1-2 mm depth was made at 5 cm and 3 cm of the proximal tail for baseline and post-drug blood clotting time, respectively; the tail nick was blotted with 4×4 gauze every 15 seconds until bleeding totally stopped, and blood clotting time was recorded from the onset of bleeding until it stopped.
Heparan sulfate proteoglycans or heparin regulates the bioavailability of FGFs. In order to develop a “cardioprotective” FGF as a therapeutic against ischemic heart disease, it was necessary to elucidate the efficacy of these cardiac FGFs in the presence of heparin treatment. Therefore, native rhFGFs (FGF 1, 2, 4, or 5) or vehicle are infused intravenously (at dose indicated above) in conjunction with unfractionated (12 units/kg/hr, i.v.) or low molecular weight heparin (enoxaparin 1 mg·kg, s.c.) during the first 15 minutes of reperfusion (FIG. 12A), and post-ischemic recovery of cardiac function and the degree of myocardial infarction is assessed. […] Unfractionated or low molecular weight heparin is administered alone during early reperfusion to elucidate the cardioprotective effects of heparins against IR injury. Whether FGF administration alters heparin activity is evaluated. To assess this potential interaction, activated clotting time (ACT) is assessed in vehicle-treated or FGF-treated groups in the absence or presence of heparin co-administration. Baseline and 15 minute post-drug treatment ACT is determined. It has been established that a heparin response occurs within 1 minute after an intravenous dose in humans and that no more time is required to achieve a predicted ACT.

[4] = system: in vivo rat model of myocardial infarction; assay: In vivo rat ischemia-reperfusion model, infarct size (TTC); parameters: species or system Sprague Dawley rats; settings: for effect on infarct size / cardioprotection (in words): FGF given at reperfusion with heparin co-therapy; for reduction in infarct size compared to saline/vehicle control: given i.v. at reperfusion alone (FGF 10 μg/kg; heparin 12 U/kg/hr); for effect on infarct size (in words): given at reperfusion, no heparin co-therapy
Procedure: CVR-2016-799R1 signaling and the other two sets were to evaluate the pharmacokinetic properties of native FGF1 and modified FGF1 (FGF1^ΔHBS). The first set of experiments was for the ischemia/reperfusion study in which animals were divided into six groups as follows: (1) saline group: saline treatment given intravenously for 10 minutes immediately upon reperfusion, (2) heparin group: heparin, 60 U/kg intravenous (i.v.) bolus, given immediately at reperfusion+12 U/kg/hr i.v. infusion for 120 minutes of reperfusion, (3) FGF1 group: FGF1, 10 μg/kg i.v. infusion, given for 10 minutes immediately at reperfusion, (4) FGF1+heparin: heparin, 60 U/kg bolus, given immediately upon reperfusion followed by FGF1, 10 μg/kg i.v. infusion, given for 10 minutes and 12 U/kg/hr i.v. infusion given for 110 minutes of reperfusion, (5) modified FGF1 (FGF1^ΔHBS) group: FGF1^ΔHBS, 10 μg/kg i.v. infusion, given for 10 minutes, or (6) FGF1^ΔHBS+heparin: heparin, 60 U/kg bolus, given immediately at reperfusion followed by FGF1^ΔHBS, 10 μg/kg i.v. infusion, given for 10 minutes and 12 U/kg/hr i.v. infusion for 110 minutes of reperfusion. All rats were subjected to 30 minutes of regional ischemia and 120 minutes of reperfusion. Drugs were administered at the onset of reperfusion via the jugular vein (FIG. 2A). […] A total of ninety-six rats was completed for the I/R study. Sample size for each group ranged from 9-16 depending on the power analysis. A total of thirty-five rats were excluded from the study based on the lack of cyanosis of the heart or typical elevation of the ST segment in the electrocardiogram during ischemia, and death from malignant arrhythmia. For the biodistribution or FGF1 signaling study, rats were randomly divided into six groups as described above (FIG. 2B). Following drug treatment (immediately following 15 minutes of treatment or 105 minutes post-treatment at the point which mimics the length of time of reperfusion), solid organs and blood (see sections “Tissue collection for exogenous FGF1 biodistribution” and “Cardiac preparation to detect the activation of FGF1 downstream molecules”) were collected. A total of 33 rats were used for biodistribution and FGF1 signaling studies, and 3 rats were excluded due to anesthetic overdose. Also, a total of 8 plasma samples were excluded because of hemolysis. For elimination half-life of native FGF1 and FGF1^ΔHBS, 12 rats were randomly divided into two groups and treated intraperitoneally with either FGF1 form as described in the section “Pharmacokinetic evaluation of exogenous FGF1 or FGF1^ΔHBS ”.
The in vivo I/R model was established by ligating and loosening the left anterior CVR-2016-799R1 descending artery (LAD) previously described by our laboratory. In brief, rats were anesthetized with thiobutabarbital sodium salt hydrate, Inactin® hydrate (100 mg/kg, i.p., Sigma-Aldrich), and intubated and artificially ventilated via a rodent respirator (respiratory rate: 75 strokes/minute; tidal volume: 3 mL; Model 683, Harvard, USA). The heart was exposed through a left thoracotomy and pericardiotomy, and a 6-0 silk suture was placed around the left anterior descending (LAD) coronary artery. After equilibration for 15 minutes, hearts were subjected to 30 minutes of ischemia by ligating the LAD via a snare occluder and reperfusion occurred for 120 minute via loosening the snare occluder. The appearance of cyanosis of the heart and significant ST-segment elevation in the electrocardiogram were used to verify successful ligation.
At the end of the ischemia-reperfusion injury study, the LAD was re-occluded with the suture used previously for the establishment of ischemia. 5% Evans blue dye solution was given via the jugular vein to define the area-at-risk (AAR). Then, the heart was arrested in diastole with 1 mL of 15% potassium chloride, and the animal was euthanized with an anesthetic overdose followed by a bilateral pneumothorax for removal of the heart. […]

[5] = rat, i.v.
wildtype mouse hearts = assay: Ex vivo model, low-flow ischemia and reperfusion; settings: treatment at reperfusion, mouse hearts
From the text: FIGS. 12A-12B. […] Left bar is vehicle-treated and right bar is FGF2-treated wildtype mouse hearts.

ERK1/2 = ERK1/2 activation (phosphorylation) in left ventricle, immunoblot; format: in vivo, rat; settings: immediately post-treatment, no FGF+heparin co-treatment
Procedure: Hearts from rats treated with saline, native FGF1 or FGF1^ΔHBS in the presence or absence of heparin were collected immediately after administration and at 120 minutes post-treatment for evaluation of downstream signaling. One-half of each snap-frozen heart was powdered and homogenized in protein extraction buffer as previously described by our laboratory. For FGFR1, 150 μg of total protein were loaded onto a 8% SDS-PAGE gel, for ERK1/2 activation, 20 μg of whole cell protein homogenate was loaded onto a 15% SDS-PAGE gel, and for PKCα and PKCδ, […] of whole cell protein homogenate was loaded onto a 10% SDS-PAGE gel and then transferred to nitrocellulose membrane. 0.1% Ponceau S in 5% acetic acid was used to examine the transfer efficiency and loading equality as described previously 43. Membranes were blocked with 5% dry milk and then incubated with primary antibody against phospho-FGFR1 (Y-654, 1:500, Cell Signaling), phospho-ERK1/2 (1:1000, Cell Signaling) or phospho-PKCα (1:500, Santa Cruz) or phospho-PKCδ (1:500, Santa Cruz) followed by incubation with HRP-conjugated secondary goat anti-rabbit antibody (1:3000, Santa Cruz Biotechnology). Membranes were stripped and reprobed with antibodies against total FGFR1 (1:500, Cell Signaling), total ERK (1:1000, BD Transduction Labs) or total PKCα (1:500, Santa Cruz) or PKCδ (1:500, Santa Cruz). Bound antibodies were visualized by ECL system. Activation is indicated as a ratio of phosphorylated protein/total protein. β-actin (1:1000, Cell Signaling) was also used as a loading control.
Construction of his-tagged native and heparin-binding modified rhFGFs as well as their expression and purification is performed as previously described using his-tagged expression vectors and nickel-nitrilotriacetic acid resin columns. […] His-tagged FGFs are detected in solid organs by ELISA (FIG. 14) both for FGF and histidine (data not shown), and immunoprecipitation (IP) followed by immunoblot and in plasma by ELISA as described previously. His-tags are widely used because they are small and rarely interfere with function, activity, or structure of target proteins. […] There is no observed difference in total ERK or FGFR1 expression between the treatment groups.

[6] = target: FGFR3c ectodomain (extracellular ligand binding domain of FGFR3c) (UniProt P22607); assay: ITC; FGF1 injected into FGFR3c ectodomain in the cell
FGF receptors = settings: published data; cited from earlier work
[7] = rat, 30 min ischemia/120 min reperfusion, given i.v. at reperfusion alone (FGF 10 μg/kg; heparin 60 U/kg bolus + 12 U/kg/hr)

Molecule: FGF1^ΔHBS (FGF1 carrying the K127D/K128Q/K133V triple mutation in its HS-binding site) (from UniProt P05230 1-155) (ligand)
- Kd [1]: 432 nM

Molecule: FGF2: native recombinant human fibroblast growth factor 2
- recovery of left ventricular (LV) developed pressure, % of baseline ([2]; FGF2 at reperfusion): 68%
- post-ischemic cardiac function (in words) [2]: protects the heart from cardiac dysfunction; also recorded: improved relaxation compared to saline treatment
- increase in proteolytic resistance compared to native FGF1 (trypsin): 7 fold
- Clotting time [3]: 15 mins post rhFGF2 treatment: 192 +/− 120 sec (n = 5)
- infarct size (% infarct, percentage of area-at-risk) ([4]; as E6 but FGF 10 μg/kg i.v. in the presence of heparin co-administration): 46%
- infarct size (% infarct, percentage of area-at-risk) [4, 7]: 26%
- effect on infarct size / cardioprotection (in words) ([4]; rat): significantly inhibited FGF2's reduction in infarct size
- effect on infarct size / cardioprotection (in words) ([4]; rat, listed as rhFGF2): significantly inhibited rhFGF2-induced cardioprotection against MI
- reduction in infarct size compared to saline/vehicle control ([4]; rat): 57%
- reduction in infarct size compared to saline/vehicle control ([4]; rat, listed as RhFGF2): 70%
- tissue and plasma FGF distribution (in words) ([5]; FGF with heparin co-administration): no longer targeted to the heart
- tissue and plasma FGF distribution (in words) ([5]; no FGF+heparin co-treatment): increased biodistribution heart (left ventricle)
- tissue and plasma FGF distribution (in words) ([5]; no FGF+heparin co-treatment, listed as native FGF2): significantly targeted to the heart
- cardioprotection in ex vivo model (in words) (wildtype mouse hearts): protects the heart from post-ischemic cardiac dysfunction and myocardial infarction

Molecule: Heparin sodium [reference compound]
- ERK1/2 activation (phosphorylation) in left ventricle (in words) (ERK1/2): not different than saline treatment
- post-ischemic cardiac function (in words) [2]: no significant difference in post-ischemic contractility between the saline and heparin group
- Clotting time [3]: 15 mins post-heparin treatment: 737 +/− 127 sec (n = 4)
- blood clotting time post-treatment (in words) ([3]; baseline vs 15 minutes after drug treatment): significantly longer post-treatment than at baseline
- infarct size (% infarct, percentage of area-at-risk) [4, 7]: 46%
- effect on infarct size (in words) ([4]; rat): lowered infarct size but not to the degree of FGF2 treatment; also recorded: significantly reduced infarct size compared to saline
- effect on infarct size (in words) ([4]; rat, listed as Heparin): reduced infarct size somewhat, but not to the degree of FGF2 treatment
- reduction in infarct size compared to saline/vehicle control ([4]; rat): 31%
- tissue and plasma FGF distribution (in words) ([5]; no FGF+heparin co-treatment): no difference in saline or heparin treatment with regard to FGF1 levels

Molecule: bisindolylmaleimide [GF109203X, reference compound]
- effect of PKC inhibitor on FGF2-induced cardioprotection (infarct size) ([4]; rat, 1 mg/kg i.v., with FGF2, 1 mg/kg): abrogates the FGF2-induced cardioprotective effects of reduced myocardial infarct size; also recorded: abolished FGF2-induced cardioprotection

Molecule: native FGF1 (recombinant human fibroblast growth factor 1) (from UniProt P05230 16-155) (ligand)
- Kd [6]: 704 nM

B1: FGF1^ΔTS: thermally stable mutant of FGF1 containing Q55P, S62I, and H108G FGF1-stabilizing mutations (protein, UniProt P05230 16-155, looked up, variant Q55P S62I H108G)
Fibroblast growth factor 1: FNLPPGNYKKPKLLYCSNGGHFLRILPDGTVDGTRDRSDPHIQLQLIAESVGEVYIKSTETGQYLAMDTDGLLYGSQTPNEECLFLERLEENGYNTYISKKHAEKNWFVGLKKNGSCKRGPRTHYGQKAILFLPLPVSSD
- increase in proteolytic resistance compared to native FGF1 (trypsin): 20 fold
- effect on infarct size (in words) ([4]; rat): marked reduction in infarct size compared to native FGF1 at the same dose; also recorded: more efficacious in reducing infarct size compared to the same dose of native FGF1
- activation of FGF receptors (ERK activation, cell proliferation) (in words) (FGF receptors): greater than the native FGF1
